Experimental data from patent publication US10463040B2, “Composition comprising a pesticide and isononanoic acid N,N-dimethyl amide” (BASF SE, priority 2015, dated 2019).

Tests used:
wheat and black bindweed = assay: Phytotoxicity laboratory test: plants treated with 2 g of a 1% emulsion, evaluated visually after 3 days; type: in vivo
Method: No phytotoxicity in the context of the present invention means that in comparison to untreated plants, 0% of the treated plants have plant injury according to the phytotoxicity method described below.
Phytotoxicity in accordance with the present invention is determined by an assay where e.g. wheat (grasses) or black bindweed (broad leave), are treated with 2 g of a 1% Emulsion described below and are visually evaluated after 3 days of incubation. Plant injury covers the assessment of leave condition as well as resistance to lodging in case of grasses.
The emulsion is prepared by mixing 1% of concentrate with water. The concentrate consists of 7.5% of castor oil ethoxylate (30 EO), 2.5% Ca-Dodecylbenzolsulfonate and 90% carboxylic acid amide. The experimental period lasts for 3 days. During this time, the experimental plants receive optimum watering, with nutrients being supplied via the water used for watering.
The phytotoxicity is evaluated by awarding scores to the treated plants in comparison to untreated plants, i.e. treated with water only. The evaluation scale ranges from 0% to 100% phytotoxicity. The evaluation is done by visual examination. 0% phytotoxicity means that there are no differences between treated and untreated plants. […]
Plants, i.e. wheat and black bindweed, were treated with 2 g of a 1% Emulsion described below and were visually evaluated after 3 days of incubation. […]

[1] = Emulsion stability: 5% of the emulsion concentrate diluted in CIPAC water D, ml cream after 1, 2, 4 and 24 h; type: physicochemical; parameters: key to Emulsion 5% in Cipac D 2 h / Emulsion 5% in Cipac D 4 h / Emulsion 5% in Cipac D 1 h / Emulsion 5% in Cipac D 24 h: stable = no cream; details: for Emulsion 5% in Cipac D 1 h / Emulsion 5% in Cipac D 2 h / Emulsion 5% in Cipac D 4 h / Emulsion 5% in Cipac D 24 h: amide 63%; for Stability of the emulsion comprising the amide: summary in words of Example 4
Method: Stable in the context of the present invention means that no cream has formed within 24 hours after mixing components of a formulation. To measure the stability, 5% of the formulation (emulsion concentrate) is diluted in CIPAC water D in a 100 ml cylinder. The resulting oil-in-water emulsion is assessed after 1, 2, 4 and 24 hours.

[2] = Determination of the max. solubility of fungicide/herbicide in the carboxylic acid amide (quantitative 1H-NMR of supernatant); type: physicochemical
Method: The respective fungicide/herbicide was dissolved in the solvent of interest so that a supersaturated solution was obtained. The deposit was filtered off. The concentration of the fungicide/herbicide in the supernatant was determined via quantitative 1H-NMR spectroscopy.

[3] = Formulation: Oxyfluorfen 25%, Ca Dodecylbenzolsulfonat 2%, Castor oil ethoxylate (35 EO) 10%
[4] = Formulation: Oxyfluorfen 25%, Castor oil ethoxylate (35 EO) 12%
[5] = Formulation: Tebuconazol 25%, Ca Dodecylbenzolsulfonat 2%, Castor oil ethoxylate (35 EO) 10%
[6] = Formulation: Tebuconazol 25%, Castor oil ethoxylate (35 EO) 12%

Row | Emulsion 5% in Cipac D 1 h [1, 3] | Emulsion 5% in Cipac D 2 h [1, 3] | Emulsion 5% in Cipac D 4 h [1, 3] | Emulsion 5% in Cipac D 24 h [1, 3] [ml cream] | Emulsion 5% in Cipac D 1 h [1, 4] | Emulsion 5% in Cipac D 2 h [1, 4] | Emulsion 5% in Cipac D 4 h [1, 4] | Emulsion 5% in Cipac D 24 h [1, 4] | Emulsion 5% in Cipac D 1 h [1, 5] | Emulsion 5% in Cipac D 2 h [1, 5] | Emulsion 5% in Cipac D 4 h [1, 5] | Emulsion 5% in Cipac D 24 h [1, 5] [ml cream] | Emulsion 5% in Cipac D 1 h [1, 6] | Emulsion 5% in Cipac D 2 h [1, 6] | Emulsion 5% in Cipac D 4 h [1, 6] [ml cream] | Emulsion 5% in Cipac D 24 h [1, 6] [ml cream] | Stability of the emulsion comprising the amide [1] | Structure (SMILES) | further results
1 | stable | stable | stable | 0.5 | stable | stable | stable | stable | stable | stable | stable | 0.5 | stable | stable | 0.5 | 0.5 | stable | CC(CC(=O)N(C)C)CC(C)(C)C (stereo not drawn) [Isononanoic acid N,N-dimethylamide, isononanoic acid N,N-dimethylamide] | Phytotoxicity (wheat and black bindweed; 3 days after treatment, 1% emulsion of concentrate (7.5% castor oil ethoxylate (30 EO), 2.5% Ca-Dodecylbenzolsulfonate, 90% amide), wheat and black bindweed): 0 (0 means no damage); Phytotoxic effect on plants (wheat and black bindweed; statement in words in the description): no phytotoxic effect
2 | 0.5 ml cream | 3 ml cream | 4.0 ml cream | 6 | 0.5 ml cream | 1 ml cream | 4.0 ml cream | 6 ml cream | 3.0 ml cream | 8 ml cream | 8.0 ml cream | 8 | stable | 2 ml cream | 3.0 | 3 | unstable | CCCCCCCCC(=O)N(C)C [n-C9 N,N-dimethylamide] | Solubility [%] Oxyfluorfen [2]: 34%; Solubility [%] Pyraclostrobin [2]: 46%; Solubility [%] Tebuconazole [2]: 42%
